Assay results reported in patent publication US20110229878A1, “HUMAN CONSENSUS SODIUM-IODIDE SYMPORTER REPRESSOR (NIS-REPRESSOR) BINDING SITE” (priority 2010, published 2011).

How the values were obtained:
[1] = test system: NIS-repressor (KAK1 nuclear extract); assay: EMSA competition against radiolabeled Probe-A (NRBS-P), KAK1 nuclear extract; type: binding, human; details: 60× unlabeled annealed double-stranded oligonucleotide
Excerpt: FIGS. 2A and 2B show the results of EMSA analysis followed by […] to define the core sequence for NRBS-D and cross competition of NRBS-D with NRBS-P. FIG. 2A depicts EMSA using KAK1 nuclear extract probed with radiolabeled SHIFT-4 containing NRBS-D in lanes 2 to 15. Unlabeled (30×) SHIFT-4, 4.1, 4.4, 4.2, 4.3, 4.5, 4.6, 4.7, and Probe-A were included in EMSA reactions in lanes 3, 4, 5, 6, 7, 11, 12, 13, and 15, respectively. The unlabeled (60×) annealed double-stranded oligonucleotides ds-411, ds-412, ds-413, and Comp-1 were added to the EMSA reactions in lanes 8, 9, 10, and 14, respectively. Lane 2 had no additional unlabeled competitor, and lane 1 contained radiolabeled SHIFT-4 probe only. In FIG. 2B, KAK1 nuclear extract was probed with radiolabeled Probe-A. The unlabeled 30× Probe-A, 60× annealed double-stranded Comp-1, and 60× annealed double-stranded ds-414 were added in EMSA reactions in lane 3, 4, and 5, respectively. The arrows point to the probe-specific bands.
EMSA: EMSA is carried out as follows: 3 μL nuclear extract, 1 μL end-labeled probe, 1 μL Poly(dI-dC)-Poly(dI-dC) (0.01 U/μL in 100 mM KCl, 20 mM HEPES, pH 8.0), 1 μL Salmon sperm DNA (500 ng/μL in nuclease-free water), 5 μL 4×EMSA buffer (400 mM KCl, 80 mM HEPES, 0.8 mM EDTA, 80% glycerol, 0.5 mM DTT) are mixed and distilled nuclease-free water is added to bring the reaction mix to 18 μL. […]

[2] = test system: hNIS transcription in Cal-62 cells; assay: Endogenous hNIS transcription in Cal-62 cells; type: cell-based, human
Excerpt: (§1) Furthermore. […] PJ34 inhibition of PARP1 enzymatic activity may compromise the assembly, stability, or activity of the NIS-repressor protein complex.

NIS promoter constructs = assay: Luciferase activity from NIS promoter constructs; type: cell-based, human
Excerpt: as §1

[3] = test system: hNIS transcription in KAK1 cells; assay: Endogenous hNIS transcription in KAK1 cells; type: cell-based, human
Excerpt: as §1

hNIS = assay: Endogenous hNIS mRNA / transcription in thyroid cancer cells (cell line not given); type: cell-based, human
Excerpt: Multiple cellular and nuclear factors are reported to be important for hNIS transcription, including: TSH (thyrotropin)/receptor (TSHr) (Riedel, et al. 2001), TTF-1 (Schmitt, et al. 2001), and Pax-8 (Pasca di Magliano, et al. 2000), but there are no clear examples of repressing transcription factors in thyroid cells or thyroid carcinomas. […] We also characterized NIS-repressor and investigated the identities of its components and mechanisms of its activity. This involved defining NRBS-P to a narrower region of hNIS promoter and utilizing it to probe nuclear extract, analyzing the probe-bound proteins with liquid chromatography coupled with tandem mass spectrometry (LC/MS/MS), to characterize NIS-repressor components. […] Pharmacological inhibition of PARP-1 activity with PJ34, a PARP-1 inhibitor, stimulated endogenous hNIS mRNA levels, providing evidence that PARP-1 acts as a negative regulatory factor for hNIS transcription and is a likely component of the NIS-repressor complex.
In summary, a second core sequence in the human sodium-iodine symporter (hNIS) promoter, NRBS-D, which is a binding site for a trans-active transcriptional repressor, NIS-repressor has been defined. […] A known inhibitor of PARP-1 enzymatic activity, PJ34, causes increased endogenous transcription of hNIS in genotypically verified thyroid cancer cells.

NIS-repressor = assay: EMSA pattern using KAK1 nuclear extract after epigenetic agents; type: binding, human
Experimental: EMSA: EMSA is carried out as follows: 3 μL nuclear extract, 1 μL end-labeled probe, 1 μL Poly(dI-dC)-Poly(dI-dC) (0.01 U/μL in 100 mM KCl, 20 mM HEPES, pH 8.0), 1 μL Salmon sperm DNA (500 ng/μL in nuclease-free water), 5 μL 4×EMSA buffer (400 mM KCl, 80 mM HEPES, 0.8 mM EDTA, 80% glycerol, 0.5 mM DTT) are mixed and distilled nuclease-free water is added to bring the reaction mix to 18 μL. The mixture is incubated on ice for 30 minutes, followed by addition of 2 μL of loading buffer (1×EMSA buffer, 0.25% Bromophenol Blue). A 7% non-denaturing PAGE gel is pre-run in 0.5×TBE (5.4 g/L Tris base, 2.75 g/L boric acid, 1 mM EDTA, pH 8.) for 30 minutes at 100V. The entire 20 μL EMSA reaction is loaded into one well of the polyacrylamide gel and run at 100V until the Bromophenol Blue dye has migrated to the end of the gel. The gel is dried on DEAE paper using a standard gel dryer and the dried gel is exposed to X-ray film. A retarded signal relative to free end-labeled probe indicates athe presence of a positive protein-probe interaction complex. When un-labeled DNA probe is added in the EMSA reaction mixture, loss of EMSA signal indicates the signal is probe-specific.

NIS transcription = details: Venkataraman et al. 1999; cited from earlier work
chromatin compaction = details: previous genomic DNase I digestion studies (Li et al. 2007); cited from earlier work

Molecule | effect on EMSA pattern (NIS-repressor) | NIS transcription (NIS transcription) | effect on chromatin compaction (chromatin compaction) | other results
ds-414: annealed double-stranded oligonucleotide 5′-ccttgttacagatggggaaactaaggccca-3′, −987 to −958 (SEQ ID NO.: 6) (sense CCTTGTTACAGATGGGGAAACTAAGGCCCA; annealed double-stranded unlabeled competitor, further chemistry not given here) | – | – | – | competition against radiolabeled Probe-A in EMSA [1]: strong competition
CN(C)CC(=O)Nc1ccc2[nH]c(=O)c3ccccc3c2c1 [PJ34] | – | – | – | endogenous hNIS transcription [2]: stimulated; luciferase activity from NIS promoter constructs (NIS promoter constructs): effectively stimulated; endogenous hNIS transcription [3]: stimulated; endogenous transcription of hNIS (hNIS; genotypically verified thyroid cancer cells): increased; endogenous hNIS mRNA levels (hNIS; pharmacological inhibition of PARP-1 activity): stimulated
Nc1ncn([C@@H]2O[C@H](CO)[C@@H](O)[C@H]2O)c(=O)n1 [5-azacytidine] | did not alter | restore | failed to demonstrate any effect | –
CCCC(=O)[O-].[Na+] [sodium butyrate] | did not alter | restore | failed to demonstrate any effect | –
